Measurements reported in patent publication US20080139664A1, “ANTI-GLYCATION AGENTS FOR PREVENTING AGE-, DIABETES-, AND SMOKING-RELATED COMPLICATIONS” (NATIONAL RESEARCH COUNCIL OF CANADA, priority 2001, published 2008).

These compounds were tested on lysozyme (assay: ESI-MS of lysozyme glycoforms after incubation with D-ribose). Conditions: lysozyme + 2D-ribose − 2H2O (14,569 Da); 37° C., 5 days.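 Note: lysozyme incubated with D-ribose, with or without anti-glycation agents, then separated by reversed-phase HPLC and analysed by electrospray mass spectrometry.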
Procedure: The effect of anti-glycation agents on the accumulation of glycated forms (glycoforms) of protein was evaluated by using electrospray mass spectrometry (ESI-MS). As the molecular mass of BSA was too large to monitor the small mass changes of its glycoforms, lysozyme was incubated with D-ribose and anti-glycants. Lysozyme and its glycoforms were isolated by RP-HPLC and analyzed by mass spectrometry.
Samples of lysozyme (0.756 mM; 4.54 mM of Lys residues) and D-ribose (50 mM) were incubated in the presence and absence of the selected anti-glycation agents at 37° C. for 5 days and subjected to electrospray mass spectrometry (ESI-MS) in order to characterize the protein intermediates as well as carboxymethylated lysozyme. Prior to MS measurements, the proteins were isolated by reversed phase-HPLC and were semi-dried by freeze drying.

Q: How did the “Peak area as % of total area of all glycoforms, 14,569” value (“Peak area as % of total area … 14,569” below) turn out when `O=Cc1ccc(O)c(O)c1` [3,4-Dihydroxybenzaldehyde] was run?
A: 1.8%

Q: For `O=c1cc(-c2ccccc2)oc2cc(O)c(O)c(O)c12` [Baicalein], which “Peak area as % of total area … 14,569” value is on record?
A: 0.0%

Q: How did the “Peak area as % of total area … 14,569” value turn out when `NCCc1ccc(O)c(O)c1` [Dopamine] was run?
A: 1.2%

Q: Which “Peak area as % of total area … 14,569” value does the source give for `O=c1oc2c(O)c(O)cc3c(=O)oc4c(O)c(O)cc1c4c23` [Ellagic acid] here?
A: 0.0%

Q: How did the “Peak area as % of total area … 14,569” value turn out when `O=C1OC(CN2CCOCC2)CN1/N=C/c1ccc([N+](=O)[O-])o1` (centres unmarked) [Furaltadone] was run?
A: 4.5%

Same assay, conditions: lysozyme + 2D-ribose − 3H2O (14,551 Da); 37° C., 5 days

Q: Which “Peak area as % of total area of all glycoforms, 14,551” value (shortened to “Peak area as % of total area … 14,551”) does the source give for `O=Cc1ccc(O)c(O)c1` [3,4-Dihydroxybenzaldehyde] here?
A: 3.0%

Q: With `O=c1cc(-c2ccccc2)oc2cc(O)c(O)c(O)c12` [Baicalein] as the compound, how does the “Peak area as % of total area … 14,551” value read?
A: 0.0%

Q: `NCCc1ccc(O)c(O)c1` [Dopamine] was tested. Which “Peak area as % of total area … 14,551” value did it give?
A: 0.0%

Q: Which “Peak area as % of total area … 14,551” value does the source give for `O=c1oc2c(O)c(O)cc3c(=O)oc4c(O)c(O)cc1c4c23` [Ellagic acid] here?
A: 0.0%

Q: How did the “Peak area as % of total area … 14,551” value turn out when `O=C1OC(CN2CCOCC2)CN1/N=C/c1ccc([N+](=O)[O-])o1` (centres unmarked) [Furaltadone] was run?
A: 2.7%

Same assay, conditions: lysozyme + 2D-ribose − 5H2O (14,533 Da); 37° C., 5 days

Q: For `O=Cc1ccc(O)c(O)c1` [3,4-Dihydroxybenzaldehyde], which “Peak area as % of total area of all glycoforms, 14,533” value (“Peak area as % of total area … 14,533” for short) is on record?
A: 0.0%

Q: For `O=c1cc(-c2ccccc2)oc2cc(O)c(O)c(O)c12` [Baicalein], which “Peak area as % of total area … 14,533” value is on record?
A: 0.0%

Q: How did the “Peak area as % of total area … 14,533” value turn out when `NCCc1ccc(O)c(O)c1` [Dopamine] was run?
A: 0.0%

Q: How did the “Peak area as % of total area … 14,533” value turn out when `O=c1oc2c(O)c(O)cc3c(=O)oc4c(O)c(O)cc1c4c23` [Ellagic acid] was run?
A: 0.0%

Q: With `O=C1OC(CN2CCOCC2)CN1/N=C/c1ccc([N+](=O)[O-])o1` (centres unmarked) [Furaltadone] as the compound, how does the “Peak area as % of total area … 14,533” value read?
A: 1.1%

Same assay, conditions: lysozyme + 2D-ribose − 6H2O (14,515 Da); 37° C., 5 days

Q: For `O=Cc1ccc(O)c(O)c1` [3,4-Dihydroxybenzaldehyde], which “Peak area as % of total area of all glycoforms, 14,515” value (“Peak area as % of total area … 14,515” below) is on record?
A: 1.2%

Q: How did the “Peak area as % of total area … 14,515” value turn out when `O=c1cc(-c2ccccc2)oc2cc(O)c(O)c(O)c12` [Baicalein] was run?
A: 0.0%

Q: `NCCc1ccc(O)c(O)c1` [Dopamine] was tested. Which “Peak area as % of total area … 14,515” value did it give?
A: 0.0%

Q: `O=c1oc2c(O)c(O)cc3c(=O)oc4c(O)c(O)cc1c4c23` [Ellagic acid] was tested. Which “Peak area as % of total area … 14,515” value did it give?
A: 0.0%

Q: For `O=C1OC(CN2CCOCC2)CN1/N=C/c1ccc([N+](=O)[O-])o1` (centres unmarked) [Furaltadone], which “Peak area as % of total area … 14,515” value is on record?
A: 0.0%

Same assay, conditions: lysozyme + D-ribose − 2H2O (14,419 Da); 37° C., 5 days

Q: For `O=Cc1ccc(O)c(O)c1` [3,4-Dihydroxybenzaldehyde], which “Peak area as % of total area of all glycoforms, 14,419” value (shortened to “Peak area as % of total area … 14,419”) is on record?
A: 3.1%

Q: For `O=c1cc(-c2ccccc2)oc2cc(O)c(O)c(O)c12` [Baicalein], which “Peak area as % of total area … 14,419” value is on record?
A: 0.0%

Q: With `NCCc1ccc(O)c(O)c1` [Dopamine] as the compound, how does the “Peak area as % of total area … 14,419” value read?
A: 1.6%

Q: For `O=c1oc2c(O)c(O)cc3c(=O)oc4c(O)c(O)cc1c4c23` [Ellagic acid], which “Peak area as % of total area … 14,419” value is on record?
A: 1.2%

Q: How did the “Peak area as % of total area … 14,419” value turn out when `O=C1OC(CN2CCOCC2)CN1/N=C/c1ccc([N+](=O)[O-])o1` (centres unmarked) [Furaltadone] was run?
A: 6.3%

Same assay, conditions: lysozyme + D-ribose − 3H2O (14,401 Da); 37° C., 5 days

Q: `O=Cc1ccc(O)c(O)c1` [3,4-Dihydroxybenzaldehyde] was tested. Which “Peak area as % of total area of all glycoforms, 14,401” value (“Peak area as % of total area … 14,401” for short) did it give?
A: 0.0%

Q: With `O=c1cc(-c2ccccc2)oc2cc(O)c(O)c(O)c12` [Baicalein] as the compound, how does the “Peak area as % of total area … 14,401” value read?
A: 0.0%

Q: With `NCCc1ccc(O)c(O)c1` [Dopamine] as the compound, how does the “Peak area as % of total area … 14,401” value read?
A: 1.3%

Q: For `O=c1oc2c(O)c(O)cc3c(=O)oc4c(O)c(O)cc1c4c23` [Ellagic acid], which “Peak area as % of total area … 14,401” value is on record?
A: 0.0%

Q: For `O=C1OC(CN2CCOCC2)CN1/N=C/c1ccc([N+](=O)[O-])o1` (centres unmarked) [Furaltadone], which “Peak area as % of total area … 14,401” value is on record?
A: 0.0%

Same assay, conditions: lysozyme + D-ribose − H2O (14,437 Da); 37° C., 5 days

Q: For `O=Cc1ccc(O)c(O)c1` [3,4-Dihydroxybenzaldehyde], which “Peak area as % of total area of all glycoforms, 14,437” value (“Peak area as % of total area … 14,437” below) is on record?
A: 10.9%

Q: `O=c1cc(-c2ccccc2)oc2cc(O)c(O)c(O)c12` [Baicalein] was tested. Which “Peak area as % of total area … 14,437” value did it give?
A: 5.9%

Q: With `NCCc1ccc(O)c(O)c1` [Dopamine] as the compound, how does the “Peak area as % of total area … 14,437” value read?
A: 13.4%

Q: Which “Peak area as % of total area … 14,437” value does the source give for `O=c1oc2c(O)c(O)cc3c(=O)oc4c(O)c(O)cc1c4c23` [Ellagic acid] here?
A: 14.6%

Q: `O=C1OC(CN2CCOCC2)CN1/N=C/c1ccc([N+](=O)[O-])o1` (centres unmarked) [Furaltadone] was tested. Which “Peak area as % of total area … 14,437” value did it give?
A: 23.9%

Same assay, conditions: lysozyme + D-ribose − H2O with one carboxymethylated Lys residue (14,496 Da); 37° C., 5 days

Q: Which “Peak area as % of total area of all glycoforms, 14,496” value (shortened to “Peak area as % of total area … 14,496”) does the source give for `O=Cc1ccc(O)c(O)c1` [3,4-Dihydroxybenzaldehyde] here?
A: 1.5%

Q: How did the “Peak area as % of total area … 14,496” value turn out when `O=c1cc(-c2ccccc2)oc2cc(O)c(O)c(O)c12` [Baicalein] was run?
A: 0.0%

Q: `NCCc1ccc(O)c(O)c1` [Dopamine] was tested. Which “Peak area as % of total area … 14,496” value did it give?
A: 0.0%

Q: With `O=c1oc2c(O)c(O)cc3c(=O)oc4c(O)c(O)cc1c4c23` [Ellagic acid] as the compound, how does the “Peak area as % of total area … 14,496” value read?
A: 0.0%

Q: How did the “Peak area as % of total area … 14,496” value turn out when `O=C1OC(CN2CCOCC2)CN1/N=C/c1ccc([N+](=O)[O-])o1` (centres unmarked) [Furaltadone] was run?
A: 0.0%

Same assay, conditions: lysozyme with one carboxymethylated Lys residue (14,364 Da); 37° C., 5 days

Q: For `O=Cc1ccc(O)c(O)c1` [3,4-Dihydroxybenzaldehyde], which “Peak area as % of total area of all glycoforms, 14,364” value (“Peak area as % of total area … 14,364” for short) is on record?
A: 0.0%

Q: `O=c1cc(-c2ccccc2)oc2cc(O)c(O)c(O)c12` [Baicalein] was tested. Which “Peak area as % of total area … 14,364” value did it give?
A: 0.0%

Q: `NCCc1ccc(O)c(O)c1` [Dopamine] was tested. Which “Peak area as % of total area … 14,364” value did it give?
A: 3.3%

Q: Which “Peak area as % of total area … 14,364” value does the source give for `O=c1oc2c(O)c(O)cc3c(=O)oc4c(O)c(O)cc1c4c23` [Ellagic acid] here?
A: 1.1%

Q: How did the “Peak area as % of total area … 14,364” value turn out when `O=C1OC(CN2CCOCC2)CN1/N=C/c1ccc([N+](=O)[O-])o1` (centres unmarked) [Furaltadone] was run?
A: 0.9%

Same assay, conditions: unmodified lysozyme (14,305 Da); 37° C., 5 days

Q: `O=Cc1ccc(O)c(O)c1` [3,4-Dihydroxybenzaldehyde] was tested. Which “Peak area as % of total area of all glycoforms, 14,305” value (“Peak area as % of total area … 14,305” below) did it give?
A: 78.6%

Q: Which “Peak area as % of total area … 14,305” value does the source give for `O=c1cc(-c2ccccc2)oc2cc(O)c(O)c(O)c12` [Baicalein] here?
A: 94.1%

Q: Which “Peak area as % of total area … 14,305” value does the source give for `NCCc1ccc(O)c(O)c1` [Dopamine] here?
A: 79.2%

Q: Which “Peak area as % of total area … 14,305” value does the source give for `O=c1oc2c(O)c(O)cc3c(=O)oc4c(O)c(O)cc1c4c23` [Ellagic acid] here?
A: 83.1%

Q: `O=C1OC(CN2CCOCC2)CN1/N=C/c1ccc([N+](=O)[O-])o1` (centres unmarked) [Furaltadone] was tested. Which “Peak area as % of total area … 14,305” value did it give?
A: 60.6%

The compounds below were run on bovine serum albumin (BSA) (assay: Fluorescamine assay of free primary amino groups of BSA incubated with D-ribose). Conditions: free primary amino group on BSA after 5 days at 37° C.; agent at 16.8 times IC50; 64% without agent.
Type: biochemical
Procedure: Fluorescamine assay (Yeboah F. et al., J. Agric. Food Chem. 48, 2766-2774 (2000)) was performed on incubated mixtures of BSA and D-ribose, with or without the identified anti-glycation agents. The mixtures contained BSA (0.075 mM protein concentration or 4.53 mM of Lys residue concentration) and D-ribose (50 mM). […] The fluorescamine assay determines the number of free lysine residues of BSA. In this experiment, the final volume of the incubation mixtures was 10 mL and the incubation time was 5 days at 37° C. Prior to the fluorescamine assay, the proteins were isolated by reverse phase HPLC. The protein content was determined using the Bio-Rad protein determination reagent (Bradford method). The fluorescamine assay was done in triplicate.

Q: How did the Unreacted amino group turn out when `O=Cc1ccc(O)c(O)c1` [3,4-Dihydroxybenzaldehyde] was run?
A: 32%

Q: For `O=c1cc(-c2ccccc2)oc2cc(O)c(O)c(O)c12` [Baicalein], which Unreacted amino group is on record?
A: 48%

Q: `NCCc1ccc(O)c(O)c1` [Dopamine] was tested. Which Unreacted amino group did it give?
A: 60%

Q: For `O=c1oc2c(O)c(O)cc3c(=O)oc4c(O)c(O)cc1c4c23` [Ellagic acid], which Unreacted amino group is on record?
A: 52%

Q: For `O=C1OC(CN2CCOCC2)CN1/N=C/c1ccc([N+](=O)[O-])o1` (centres unmarked) [Furaltadone], which Unreacted amino group is on record?
A: 60%

Same assay, conditions: in words

Q: How did the “effect on protection of amino groups of BSA” value turn out when `O=Cc1ccc(O)c(O)c1` [3,4-Dihydroxybenzaldehyde] was run?
A: seem to accelerate the modification of the amino groups

Each compound was assayed on bovine serum albumin (BSA) (assay: not given). Conditions: not given.

Q: How did the IC50 turn out when `O=Cc1ccc(O)c(O)c1` [3,4-Dihydroxybenzaldehyde] was run?
A: 120 µM

Q: With `O=c1cc(-c2ccccc2)oc2cc(O)c(O)c(O)c12` [Baicalein] as the compound, how does the IC50 read?
A: 49 µM

Q: Which IC50 does the source give for `NCCc1ccc(O)c(O)c1` [Dopamine] here?
A: 62 µM

Q: For `O=c1oc2c(O)c(O)cc3c(=O)oc4c(O)c(O)cc1c4c23` [Ellagic acid], which IC50 is on record?
A: 40 µM

Q: Which results are given for `O=C1OC(CN2CCOCC2)CN1/N=C/c1ccc([N+](=O)[O-])o1` (centres unmarked) [Furaltadone]?
A: IC50: 41 µM; maximum percentage of the inhibition: 30%)
